PMC10552397 (Cell Communication and Signaling : CCS, 2023)

System: HeLa wt cells
Test: Immunoblot of LC3-II and SQSTM1 (autophagic flux)
Assay type: cell-based
Settings: 100 nM, 6 h
Method: For SDS PAGE and western blotting, cells were harvested by scraping, pelletized at 150 rcf and 4 °C for 5 min, washed with DPBS and quickly frozen in liquid nitrogen. Cells were lysed in lysis buffer (20 mM Tris–HCl, 150 mM NaCl, 500 µM EDTA, 1% [v/v] Triton X-100, 1 mM Na3VO4, 10 mM NaF, 2.5 mM Na4P2O7, 1X protease inhibitor cocktail [Roche, Basel, Switzerland, #4693132001]) for 30 min on ice and the lysates were cleared by centrifugation at 18,000 rcf and 4 °C for 15 min. Protein concentration was determined by Bradford assay and sample buffer was added (62.5 mM Tris, 8.6% [v/v] glycerol, 2% [w/v] SDS, 33.3 µg/mL bromophenol blue, 1% [v/v] β-mercaptoethanol). […] For CETSA analysis of TPP-TR samples, the protein concentration was determined by Pierce 660 nm Protein Assay and the protein concentration of the 36.5 °C treated sample of each treatment and replicate was used for the other nine samples of the respective sample set to display temperature-dependent total protein aggregation and precipitation. […] After separation by SDS-PAGE, proteins were transferred to PVDF membranes (Merck, Darmstadt, Germany, #IPFL00010), blocked with 5% milk powder in TBST and analyzed using the indicated primary antibodies followed by appropriate IRDye 800- or IRDye 680-conjugated secondary antibodies (LI-COR Biosciences, Lincoln, NE, USA). […]

In the case of CCCCCC1=C/C(=C/c2[nH]c(-c3ccc[nH]3)cc2OC)N=C1C [Prodigiosin, prodigiosin], the LC3-II level was “accumulated” and the “starvation-induced degradation of SQSTM1” value (EBSS) was “blocked”.
